Source: patent EP0536208B1, “1,2-DIHYDRO-3H-DIBENZISOQUINOLINE-1,3-DIONE ANTICANCER AGENTS” (RESEARCH CORPORATION TECHNOLOGIES, INC., priority 1990, dated 1992)
In brackets after ≈: the same amount, converted by molar mass. Like-named read-outs stand apart in the source and are kept apart here.

Key:
LOVOp32 = test: Activity against human colon tumor cells (MTT assay, 3 day drug exposure); assay type: cell-based; conditions: cells plated 24 hr. prior to drug addition, read-out: Concentration for 50% inhibition of colony formation for human colon tumors
Procedure: (§1) For example, the compounds of the present invention were evaluated for cytotoxic activities in cloned human colon carcinomas. The clonogenic assays were conducted in accordance with the procedure described hereinbelow: 1) Colony Forming Assays in Soft Agar: Fresh human or murine tumors are disaggregated into single cell suspensions using mechanical, hypoosmotic and/or enzymatic (trypsin) methods. The single cells (about 5 X 10^4-10^5) are plated in 35 mm plastic petri dishes onto a 1 ml "feeder layer" of 0.3% agar dissolved in growth medium containing 5-10% vol/vol of heat-inactivated fetal bovine serum, molten 0.3% agar and the antibiotics penicillin (100 u/mL) and streptomycin (100 ug/mL). Drug exposures can be performed for one hour or continuously (drugs added to final plating medium). Tumor cell colonies > 60 uM in size are counted by automated image analysis after 10-20 days of incubation in a humidified, 5-10% CO2-gassed environment maintained at 37°C. Inhibition of colony formation is calculated based on comparisons to control (untreated) plates wherein the growth of hundreds of colonies/plate is typical. (Salmon SE, et al., N Engl J Med 298(24):1321-1327, 1978).
(§2) Compounds of the present invention were tested for their in vitro activity in tumor cells sensitive and resistant to standard anti-cancer agents. The tumor cell lines used in this protocol are 8226 human Myeloma^1; 8226/Dox-40^2, L-1210/Murine Leukemia, multidrug resistant L-210/^3, 2780 Human Ovarian Cancer and 2780/AD^4. Each of these resistant cell lines is known as a multidrug resistant or "MDR" cell line. These cell lines produce a 170,00 molecular weight membrane protein termed the P-glycoprotein which acts as an active drug efflux pump. Thus, once a cell produces the P-glycoprotein, it has the capability of pumping out of the cell a large variety of unrelated natural products. […] The protocol for measuring the effectiveness of compounds of the present invention is as follows: 2) In Vitro Tumor Cell Viability Assays Using MTT-Dye: Tumors are processed into a single cell suspension as described above. The cells are plated at a concentration of 3-5 X 10^4/1 mL well into plastic 96-well plates. Growth medium containing 5-10% (vol/vol) heat-inactivated fetal bovine serum and penicillin/streptomycin (as above) is added prior to incubation at 37°C for six days. Afterwards the medium containing the drug is removed, the cells are "washed" by centrifugation in fresh medium or phosphate-buffered saline (pH 7.4). A tetrazolium dye is then added (3,4,5-dimethylthiazol-2-yl)-2,5-diphenyl tetrazolium bromide (MTT). This dye forms a colored formazan product upon activation by mitochondrial reductases in viable cells. Typically, the formazan product is solubilized in acid-propanol or DMSO. The intensity of the color is proportional to viable cell numbers and this is quantitated by spectrophotometric absorbance ([…]) on a micro ELISA plate reader. Test results are calibrated in % control absorbance from untreated tumor cells (Mossman T: J Immunol Meth 65:55-63, 1983). Using the above procedure, Compound 1 was tested for its cytotoxic activity with respect to various tumor cell lines.

205p14 = test: as above; assay type: cell-based; conditions: cells plated 24 hr. prior to drug addition, read-out: Concentration for 50% inhibition of colony formation for human colon tumors
Procedure: as §1, §2

SW80p105 = test: as above; assay type: cell-based; conditions: cells plated 24 hr. prior to drug addition, read-out: Concentration for 50% inhibition of colony formation for human colon tumors
Procedure: as §1
as §2, with “Growth medium containing 5-10% (vol/vol) heat-inactivated fetal bovine serum and penicillin/streptomycin (as above) is added prior to incubation at 37°C for six days.” left out

HT29p30 = test: as above; assay type: cell-based; conditions: cells plated 24 hr. prior to drug addition, read-out: Concentration for 50% inhibition of colony formation for human colon tumors
Procedure: as §1
as §2, with “Growth medium containing 5-10% (vol/vol) heat-inactivated fetal bovine serum and penicillin/streptomycin (as above) is added prior to incubation at 37°C for six days.” left out

Resistant L1210 = test: In vitro tumor cell viability assay using MTT dye; assay type: cell-based, Murine; conditions: Mus musculus
Procedure: as §2, with “Growth medium containing 5-10% (vol/vol) heat-inactivated fetal bovine serum and penicillin/streptomycin (as above) is added prior to incubation at 37°C for six days.” left out

8226/DOX-40 = test: In vitro tumor cell viability assay using MTT dye; assay type: cell-based, Human; conditions: Homo sapiens; 8226 Myeloma Cells Resistant; continuous exposure, MTT dye assay; read-out: IC50 VALUES
Procedure: as §2, with “Growth medium containing 5-10% (vol/vol) heat-inactivated fetal bovine serum and penicillin/streptomycin (as above) is added prior to incubation at 37°C for six days.” left out

L-1210/Murine Leukemia = test: In vitro tumor cell viability assay using MTT dye; assay type: cell-based; conditions: Mus musculus
Procedure: as §2, with “Growth medium containing 5-10% (vol/vol) heat-inactivated fetal bovine serum and penicillin/streptomycin (as above) is added prior to incubation at 37°C for six days.” left out

8226 Human Myeloma = test: In vitro tumor cell viability assay using MTT dye; assay type: cell-based; conditions: Homo sapiens; 8226 Myeloma Cells Sensitive; continuous exposure, MTT dye assay; read-out: IC50 VALUES
Procedure: as §2, with “Growth medium containing 5-10% (vol/vol) heat-inactivated fetal bovine serum and penicillin/streptomycin (as above) is added prior to incubation at 37°C for six days.” left out

[1] = 144 h, Resistant L1210, six day MTT assay, continuous drug exposure, read-out: Concentration for 50% inhibition of tumor cells
[2] = L1210 Leukemia Cells Resistant, continuous exposure, MTT dye assay, read-out: IC50 VALUES
[3] = 144 h, Sensitive L1210, six day MTT assay, continuous drug exposure, read-out: Concentration for 50% inhibition of tumor cells
[4] = L1210 Leukemia Cells Sensitive, continuous exposure, MTT dye assay, read-out: IC50 VALUES

SMILES | IC50 (LOVOp32) | IC50 (205p14) | IC50 (SW80p105) | IC50 (HT29p30) | IC50 (Resistant L1210; [1]) | IC50 (L-1210/Murine Leukemia; [3]) | other results
CN(C)CCN1C(=O)c2cccc3cc4cccc([N+](=O)[O-])c4c(c23)C1=O [Compound 2, 2-[2-(dimethylamino)ethyl]-1,2-dihydro-11-nitro-2H-dibenz(deh)isoquinoline-1,3-dione] | 3000 nM | 3000 nM | 2500 nM | 1750 nM |  |  | 
CN(C)CCN1C(=O)c2cccc3cc4cccc(N)c4c(c23)C1=O [Compound 3, 11-Amino-2-[2'-(dimethylamino)ethyl]-1,2-dihydro-3H-dibenz(deh)isoquinoline-1,3-dione] | 4000 nM | 2600 nM | 3100 nM | 3600 nM |  |  | 
O=C1c2cccc3cc4ccccc4c(c23)C(=O)N1CCN1CCCCC1 [Compound 7, 2-[2'-(N-piperidino)ethyl]-1,2-dihydro-3H-dibenz(deh)isoquinoline-1,3-dione] | 750 nM | 10000 nM | 1000 nM | 4400 nM |  |  | 
O=C1c2cccc3cc4ccccc4c(c23)C(=O)N1CCN1CCCC1 [Compound 8, 2-[2'-(N-pyrrolidino)ethyl]-1,2-dihydro-3H-dibenz(deh)isoquinoline-1,3-dione] | 1000 nM | 11700 nM | 900 nM | 2600 nM |  |  | 
CCN1CCCC(N2C(=O)c3cccc4cc5ccccc5c(c34)C2=O)C1 (stereo not shown) [Compound 9, 2-(1'-ethyl-3'piperidinyl)-1,2-dihydro-3H-dibenz(deh)isoquinoline-1,3-dione] | 5600 nM | 17500 nM | 3000 nM | 11200 nM |  |  | 
CN(C)c1ccc(N2C(=O)c3cccc4cc5ccccc5c(c34)C2=O)cc1 [Compound 10, 2-(4'-dimethylaminophenyl)-1,2-dihydro-3H-dibenz(deh)isoquinoline-1,3-dione] |  |  | 750 nM | 250 nM |  |  | 
CN(C)CCCN1C(=O)c2cccc3cc4ccccc4c(c23)C1=O [Compound 11, 2-[3'-(dimethylamino)propyl]-1,2-dihydro-3H-dibenz(deh)isoquinoline-1,3-dione] | 1600 nM | 13500 nM | 1300 nM | 8300 nM |  |  | 

More lines, main results first:

IC50 (LOVOp32) | IC50 (205p14) | IC50 (SW80p105) | IC50 (HT29p30) | IC50 (Resistant L1210; [1]) | IC50 (L-1210/Murine Leukemia; [3]) | SMILES | other results
800 nM | 11500 nM | 1300 nM | 8300 nM |  |  | O=C1c2cccc3cc4ccccc4c(c23)C(=O)N1CCCN(CCO)CCO [Compound 12] | 
 |  |  |  | 3 ng/mL (≈ 8.26 nM) | 2.7 ng/mL (≈ 7.43 nM) | CN(C)CCN1C(=O)c2cccc3cc4c([N+](=O)[O-])cccc4c(c23)C1=O [Compound 13, 2-[2'-(dimethylamino)ethyl]-1,2-dihydro-8-nitro-3H-dibenz(deh)isoquinoline-1,3-dione] | IC50 (Resistant L1210; [2]): 2.9 ng/mL (≈ 7.98 nM); IC50 (8226/DOX-40): 10 ng/mL (≈ 27.5 nM); IC50 (L-1210/Murine Leukemia; [4]): 2.5 ng/mL (≈ 6.88 nM); IC50 (8226 Human Myeloma): 5 ng/mL (≈ 13.8 nM)
 |  |  |  |  | 5000 ng/mL (≈ 15000 nM) | CN(C)CCN1C(=O)c2cccc3cc4c(N)cccc4c(c23)C1=O [Compound 14, 8-Amino-2-[2'-(dimethylamino)ethyl]-1,2-dihydro-3H-dibenz-(deh)isoquinoline-1,3-dione] | IC50 (Resistant L1210; [2]): > 5000 ng/mL; IC50 (8226/DOX-40): > 100 ng/mL; IC50 (L-1210/Murine Leukemia; [4]): 5000 ng/mL (≈ 15000 nM); IC50 (8226 Human Myeloma): > 100 ng/mL
 |  |  |  | 3.1 ng/mL (≈ 8.95 nM) | 3.1 ng/mL (≈ 8.95 nM) | CCc1ccc2c3c(c4ccccc4cc13)C(=O)N(CCN(C)C)C2=O [Compound 15, 2-[2'-(dimethylamino)ethyl]1,2-dihydro-6-ethyl-3H-dibenz(deh)isoquinoline-1,3-dione] | 
 |  |  |  | 2 ng/mL (≈ 5.67 nM) | 2.5 ng/mL (≈ 7.09 nM) | CN(C)CCN1C(=O)c2cccc3cc4ccc(Cl)cc4c(c23)C1=O [Compound 16, 10-Chloro-2-[2'-(dimethylamino)ethyl]-1,2-dihydro-3H-dibenz(deh)isoquinoline-1,3-dione] | 
 |  |  |  | 30 ng/mL (≈ 85 nM) | 28 ng/mL (≈ 79.4 nM) | CN(C)CCN1C(=O)c2cccc3c(Cl)c4ccccc4c(c23)C1=O [Compound 17, 7-Chloro-2-[2'-(dimethylamino)ethyl]-1,2-dihydro-3H-dibenz(deh)-isoquinoline-1,3-dione] | 
 |  |  |  | 3 ng/mL (≈ 9.03 nM) | 3 ng/mL (≈ 9.03 nM) | Cc1c2ccccc2c2c3c(cccc13)C(=O)N(CCN(C)C)C2=O [Compound 19, 2-[2'-(Dimethylamino)ethyl]-1,2-dihydro-7-methyl-3H-dibenz(deh)isoquinoline-1,3-dione] | 
 |  |  |  | 2.8 ng/mL (≈ 8.04 nM) | 3.2 ng/mL (≈ 9.18 nM) | COc1c2ccccc2c2c3c(cccc13)C(=O)N(CCN(C)C)C2=O [Compound 20, 2-[2'-(Dimethylamino)ethyl]-1,2-dihydro-7-methoxy-3H-dibenz-(deh)isoquinoline-1,3-dione] | 
 |  |  |  | 3.2 ng/mL (≈ 9.57 nM) | 3.2 ng/mL (≈ 9.57 nM) | CN(C)CCN1C(=O)c2cccc3c(O)c4ccccc4c(c23)C1=O [Compound 21, 2-[2'-(dimethylamino)ethyl]-1,2-dihydro-7-hydroxy-3H-dibenz(deh)isoquinoline-1,3-dione] | 
 |  |  |  | 2.7 ng/mL (≈ 8.87 nM) | 3.2 ng/mL (≈ 10.5 nM) | CNCCN1C(=O)c2cccc3cc4ccccc4c(c23)C1=O [Compound 22, 1,2-Dihydro-2-[2'-(methylamino)ethyl]-3H-dibenz(deh)isoquinoline-1,3-dione] | 
